Experimental data: the Kinase Knowledgebase extract (Sharma et al. 2016)

Each molecule was assayed against PIK3CA (human) (UniProt P42336) (assay: Inhibition of PIK3CA Kinase Activity).
PIK3CA (human), sequence (P42336 whole entry, looked up): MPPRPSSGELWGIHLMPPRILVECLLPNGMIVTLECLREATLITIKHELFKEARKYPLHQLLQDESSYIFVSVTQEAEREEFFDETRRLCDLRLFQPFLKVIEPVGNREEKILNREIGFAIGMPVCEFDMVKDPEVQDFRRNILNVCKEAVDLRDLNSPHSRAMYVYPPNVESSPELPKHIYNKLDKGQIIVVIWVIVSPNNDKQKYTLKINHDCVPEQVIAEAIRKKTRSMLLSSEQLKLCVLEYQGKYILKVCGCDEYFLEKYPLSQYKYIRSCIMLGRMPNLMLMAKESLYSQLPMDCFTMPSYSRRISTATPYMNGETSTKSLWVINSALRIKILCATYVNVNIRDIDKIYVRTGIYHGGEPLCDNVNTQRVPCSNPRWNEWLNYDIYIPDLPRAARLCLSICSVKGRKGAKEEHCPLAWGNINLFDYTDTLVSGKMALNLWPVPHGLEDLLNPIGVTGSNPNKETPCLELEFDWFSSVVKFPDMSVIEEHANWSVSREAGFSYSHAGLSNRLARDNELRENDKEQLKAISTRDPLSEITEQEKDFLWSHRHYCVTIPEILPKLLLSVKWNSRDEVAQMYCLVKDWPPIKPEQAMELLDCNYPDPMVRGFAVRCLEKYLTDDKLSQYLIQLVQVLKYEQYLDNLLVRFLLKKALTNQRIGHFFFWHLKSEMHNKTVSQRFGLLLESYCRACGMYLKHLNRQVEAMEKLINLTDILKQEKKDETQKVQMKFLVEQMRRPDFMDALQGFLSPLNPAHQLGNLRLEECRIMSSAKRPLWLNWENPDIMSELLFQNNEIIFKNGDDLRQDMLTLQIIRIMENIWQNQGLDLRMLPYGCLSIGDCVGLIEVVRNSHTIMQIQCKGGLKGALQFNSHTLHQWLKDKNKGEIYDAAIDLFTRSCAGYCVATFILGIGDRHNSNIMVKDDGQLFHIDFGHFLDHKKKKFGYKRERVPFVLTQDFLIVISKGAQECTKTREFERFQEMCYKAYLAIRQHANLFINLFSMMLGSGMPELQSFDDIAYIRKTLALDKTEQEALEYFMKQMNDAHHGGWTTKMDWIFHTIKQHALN

IC50 [nM] | Compound
100 to 1000 | CCSc1nc2c(-c3cnc(N)cn3)nc(N3CCOCC3)nc2n1C(C)CC (centres undefined)
< 100 | CC(C)n1c(-c2ccccc2)nc2c(-c3cnc(N)nc3)nc(N3CCOCC3)nc21
< 100 | CCCCNc1nc2c(-c3cnc(N)nc3)nc(N3CCOCC3)nc2n1C(C)CC (centres undefined)
100 to 1000 | CN1CCN(c2nc3c(-c4cnc(N)nc4)nc(N4CCOCC4)nc3n2C2CCCC2)CC1
100 to 1000 | CCC(C)n1c(N2CCCC2)nc2c(-c3cnc(N)nc3)nc(N3CCOCC3)nc21 (centres undefined)
100 to 1000 | CCC(C)n1c(NC(C)C)nc2c(-c3cnc(N)cn3)nc(N3CCOCC3)nc21 (centres undefined)
< 100 | Nc1ncc(-c2nc(N3CCOCC3)nc3c2nc(-c2ccsc2)n3C2CCCC2)cn1
100 to 1000 | CCC(C)n1c(NCCN(C)C)nc2c(-c3cnc(N)nc3)nc(N3CCOCC3)nc21 (centres undefined)
< 100 | CCC(C)n1c(NC(C)C)nc2c(-c3cnc(N)nc3)nc(N3CCOCC3)nc21 (centres undefined)
100 to 1000 | CCC(C)n1c(SC)nc2c(-c3cnc(N)nc3)nc(N3CCOCC3)nc21 (centres undefined)
< 100 | CC(=O)Nc1cccc(-c2nc3c(-c4cnc(N)nc4)nc(N4CCOCC4)nc3n2C(C)C)c1
100 to 1000 | CCC(C)n1c(-c2ccccc2)nc2c(-c3cnc(N)nc3)nc(N3CCOCC3)nc21 (centres undefined)
100 to 1000 | CC(C)n1c(OC2CCCC2)nc2c(-c3cnc(N)nc3)nc(N3CCOCC3)nc21
100 to 1000 | CCC(C)n1c(N2CCc3ccccc3C2)nc2c(-c3cnc(N)nc3)nc(N3CCOCC3)nc21 (centres undefined)
100 to 1000 | CC(C)n1c(-c2ccccc2)nc2c(-c3cnc(N)cn3)nc(N3CCOCC3)nc21
< 100 | CC(C)Nc1nc2c(-c3cnc(N)nc3)nc(N3CCOCC3)nc2n1C1CCCC1
100 to 1000 | CCC(C)n1c(SC)nc2c(-c3cnc(N)cn3)nc(N3CCOCC3)nc21 (centres undefined)

IC50 [nM] | Compound
100 to 1000 | CCOc1nc2c(-c3cnc(N)nc3)nc(N3CCOCC3)nc2n1C(C)CC (centres undefined)
< 100 | Nc1ncc(-c2nc(N3CCOCC3)nc3c2nc(NCC2CC2)n3C2CCCC2)cn1
< 100 | CN(C)c1nc2c(-c3cnc(N)nc3)nc(N3CCOCC3)nc2n1C1CCCC1
< 100 | CCCCNc1nc2c(-c3cnc(N)nc3)nc(N3CCOCC3)nc2n1C1CCCC1
< 100 | CCC(C)n1c(-c2ccsc2)nc2c(-c3cnc(N)nc3)nc(N3CCOCC3)nc21 (centres undefined)
100 to 1000 | CCC(C)n1c(Sc2ccccc2)nc2c(-c3cnc(N)nc3)nc(N3CCOCC3)nc21 (centres undefined)
100 to 1000 | CC1CCCCC1n1c(N(C)C)nc2c(-c3cnc(N)nc3)nc(N3CCOCC3)nc21 (centres undefined)
< 100 | CCC(C)n1c(N(C)C)nc2c(-c3cnc(N)nc3)nc(N3CCOCC3)nc21 (centres undefined)
< 100 | CCSc1nc2c(-c3cnc(N)nc3)nc(N3CCOCC3)nc2n1C(C)C
< 100 | CC(C)n1c(-c2ccc3c(c2)OCO3)nc2c(-c3cnc(N)nc3)nc(N3CCOCC3)nc21
< 100 | CC(C)Nc1nc2c(-c3cnc(N)nc3)nc(N3CCOCC3)nc2n1C(C)C
100 to 1000 | CCC(C)n1c(N2CCCC2C)nc2c(-c3cnc(N)nc3)nc(N3CCOCC3)nc21 (centres undefined)
100 to 1000 | CCC(C)n1c(N2CCN(CC)CC2)nc2c(-c3cnc(N)nc3)nc(N3CCOCC3)nc21 (centres undefined)
< 100 | CSc1nc2c(-c3cnc(N)nc3)nc(N3CCOCC3)nc2n1C(C)C
< 100 | CC(C)Nc1nc2c(-c3cnc(N)nc3)nc(N3CCOCC3)nc2n1C1CCCCC1C (centres undefined)
< 100 | CCC(C)n1c(NCCOC)nc2c(-c3cnc(N)nc3)nc(N3CCOCC3)nc21 (centres undefined)
< 100 | CC(C)n1c(-c2ccsc2)nc2c(-c3cnc(N)nc3)nc(N3CCOCC3)nc21
